Measured values reported in US8263598B2, “Substituted sulfonamide compounds” (Gruenenthal GmbH, priority 2008, dated 2012).

Columns and labels:
[1] = target: T1, human B1R receptor (hB1R) (Homo sapiens, UniProt P46663); assay: FLIPR Ca2+ assay on human bradykinin 1 receptor (CHO K1 hB1R cells); type: cell-based; settings: test substance 10 μM; CHO K1 cells with human B1R gene; agonist Lys-Des-Arg9-bradykinin 0.5 nM; compared to maximum achievable inhibition
T1 construct: host or cells: CHO K1 cells
T1 sequence (P46663 1-353): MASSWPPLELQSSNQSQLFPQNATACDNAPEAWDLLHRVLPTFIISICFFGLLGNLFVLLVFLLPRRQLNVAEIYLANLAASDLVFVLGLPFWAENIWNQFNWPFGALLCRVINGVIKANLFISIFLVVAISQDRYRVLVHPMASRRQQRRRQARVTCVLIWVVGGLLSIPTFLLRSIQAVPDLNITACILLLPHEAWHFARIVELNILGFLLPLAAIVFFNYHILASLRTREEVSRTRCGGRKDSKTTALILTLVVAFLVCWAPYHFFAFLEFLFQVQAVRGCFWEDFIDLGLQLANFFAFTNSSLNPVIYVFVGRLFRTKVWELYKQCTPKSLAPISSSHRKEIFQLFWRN
Description: (§1) The agonistic or antagonistic action of compounds can be quantified on the bradykinin 1 receptor (B1R) of humans and rats with ectopically expressing cell lines (CHO K1 cells) and with the aid of a Ca^2+-sensitive dye (Fluo-4) in the fluorescent imaging plate reader (FLIPR). The figure in percent activation refers to the Ca^2+ signal after addition of Lys-Des-Arg^9-bradykinin (0.5 nM) and Des-Arg^9-bradykinin (100 nM). Antagonists result in a suppression of the Ca^2+ inflow after the addition of the agonist. Percent inhibition values are given in comparison to the maximum achievable inhibition.
(§2) The agonistic or antagonistic action of substances can be determined on the bradykinin 1 receptor (B1R) of humans and rats by means of the following assay.
(§3) According to this assay the Ca^2+ inflow through the channel is quantified by means of a Ca^2+-sensitive dye (Fluo-4 type, Molecular Probes Europe BV, Leiden, Netherlands), in a Fluorescent Imaging Plate Reader (FLIPR, Molecular Devices, Sunnyvale, USA). Method:
(§4) Chinese hamster ovary cells (CHO K1 cells) are used, which are stably transfected with the human B1R gene (hB1R cells, Euroscreen s.a., Gosselies, Belgium), or with the B1R gene of rats (rB1R cells, Axxam, Milan, Italy). For functional investigations these cells are plated out on black 96-well plates with a clear floor (BD Biosciences, Heidelberg, Germany) in a density of 20,000/25,000 cells/well. The cells are incubated overnight with 10 vol. % FBS (foetal bovine serum, Gibco Invitrogen GmbH, Karlsruhe, Germany) at 37° C. and 5% CO2 in a culture medium (hB1R cells: Nutrient Mixture Ham's F12, Gibco Invitrogen GmbH, Karlsruhe, Germany; rB1R cells: D-MEM/F12, Gibco Invitrogen GmbH, Karlsruhe, Germany). The following day the cells are charged for 60 minutes at 37° C. with 2.13 μM Fluo-4 (Molecular Probes Europe BV, Leiden, Netherlands) in HBSS buffer (Hank's buffered saline solution, Gibco Invitrogen GmbH, Karlsruhe, Germany) together with […] (Sigma-Aldrich, Taufkirchen, Germany) and 10 mM HEPES (Sigma-Aldrich, Taufkirchen, Germany).
(§5) The plates are then washed twice with HBSS buffer and HBSS buffer is added which additionally contains 0.1% BSA (bovine serum albumin; Sigma-Aldrich, Taufkirchen, Germany), 5.6 mM glucose and 0.05% gelatin (Merck KGaA, Darmstadt, Germany). After further incubation for 20 minutes at room temperature the plates are used for the Ca^2+ measurement in the FLIPR. The Ca^2+-dependent fluorescence is measured both before and after the addition of substances (λex=488 nm, λem=540 nm). The quantification is carried out by measuring the highest fluorescence intensity (FC, fluorescence counts) over time.
(§6) The FLIPR protocol consists of two substance additions. First of all test substances (10 μM) are pipetted onto the cells and the Ca^2+ inflow is compared with the control (hB1R: Lys-Des-Arg9-bradykinin 0.5 nM; rB1R: Des-Arg9-bradykinin 100 nM). This gives the result in percent activation referred to the Ca^2+ signal after addition of Lys-Des-Arg9-bradykinin (0.5 nM), bzw. Des-Arg9-bradykinin (100 nM). After 10 minutes' incubation 0.5 nM Lys-Des-Arg9-bradykinin (hB1R) and 100 nM Des-Arg^9-bradykinin (rB1R) are applied and the inflow of Ca^2+ is likewise determined. Antagonists lead to a suppression of the Ca^2+ inflow. The percent inhibition compared to the maximum achievable inhibition is calculated. The compounds show a good activity on both human and rat receptors.
(§7) The agonistic and antagonistic action of the compounds according to the invention on the bradykinin 1 receptor (B1R) of humans and rats were determined as described above. Antagonists lead to a suppression of the Ca^2+ inflow. The % inhibition compared to the maximum achievable inhibition was calculated.

[2] = target: T2, B1R receptor of rats (rB1R) (Rattus norvegicus, UniProt P97583); assay: FLIPR Ca2+ assay on rat bradykinin 1 receptor (CHO K1 rB1R cells); type: cell-based; settings: test substance 10 μM; CHO K1 cells with B1R gene of rats; agonist Des-Arg9-bradykinin 100 nM; compared to maximum achievable inhibition
T2 construct: host or cells: CHO K1 cells
T2 sequence (P97583 1-337): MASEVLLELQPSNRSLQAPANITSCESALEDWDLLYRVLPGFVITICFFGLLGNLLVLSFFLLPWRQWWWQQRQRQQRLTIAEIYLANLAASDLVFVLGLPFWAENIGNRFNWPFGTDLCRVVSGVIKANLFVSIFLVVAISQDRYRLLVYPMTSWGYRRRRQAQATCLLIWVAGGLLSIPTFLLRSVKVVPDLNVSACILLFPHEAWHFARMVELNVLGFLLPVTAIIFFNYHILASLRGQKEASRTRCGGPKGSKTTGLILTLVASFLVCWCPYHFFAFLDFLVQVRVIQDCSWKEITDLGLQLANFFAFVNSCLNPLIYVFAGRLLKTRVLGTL
Description: as §1, §2, §3, §4, §5, §6, §7

| Compound | inhibition at 10 µM [1] [%] | inhibition at 10 µM [2] [%] |
| --- | --- | --- |
| COc1ccc(C2c3cccn3CCN2C(=O)COCCN(C)S(=O)(=O)c2cc(C)c(OC)c(C)c2C)cc1 (centres unmarked) [Example 31, 4-methoxy-N-(2-(2-(1-(4-methoxyphenyl)-3,4-dihydropyrrolo[1,2-a]pyrazin-2(1H)-yl)-2-oxoethoxy)ethyl)-N,2,3,5-tetramethylbenzenesulfonamide] | 95 | 67 |
| COc1c(C)cc(S(=O)(=O)N(C)CCOCC(=O)N2CCn3cccc3C2c2ccccc2)c(C)c1C (centres unmarked) [Example 32, 4-methoxy-N,2,3,5-tetramethyl-N-(2-(2-oxo-2-(1-phenyl-3,4-dihydropyrrolo[1,2-a]pyrazin-2(1H)-yl)ethoxy)ethyl)benzenesulfonamide] | 78 | 99 |
| COc1c(C)cc(S(=O)(=O)N(C)CCOCC(=O)N2CCn3cccc3C2c2ccc(F)c(F)c2)c(C)c1C (centres unmarked) [Example 33, N-(2-(2-(1-(3,4-difluorophenyl)-3,4-dihydropyrrolo[1,2-a]pyrazin-2(1H)-yl)-2-oxoethoxy)ethyl)-4-methoxy-N,2,3,5-tetramethylbenzenesulfonamide] | 71 | 66 |
| COc1c(C)cc(S(=O)(=O)N(C)CCOCC(=O)N2CCn3cccc3C2c2ccc(C)c(C)c2)c(C)c1C (centres unmarked) [Example 34, N-(2-(2-(1-(3,4-dimethylphenyl)-3,4-dihydropyrrolo[1,2-a]pyrazin-2(1H)-yl)-2-oxoethoxy)ethyl)-4-methoxy-N,2,3,5-tetramethylbenzenesulfonamide] | 58 | 42 |
| COc1c(C)cc(S(=O)(=O)N(C)CCOCC(=O)N2CCn3cccc3C2c2cccc(F)c2)c(C)c1C (centres unmarked) [Example 35, N-(2-(2-(1-(3-fluorophenyl)-3,4-dihydropyrrolo[1,2-a]pyrazin-2(1H)-yl)-2-oxoethoxy)ethyl)-4-methoxy-N,2,3,5-tetramethylbenzenesulfonamide] | 81 | 48 |
| COc1c(C)cc(S(=O)(=O)N(C)CCOCC(=O)N2CCn3cccc3C2c2cccs2)c(C)c1C (centres unmarked) [Example 36, 4-methoxy-N,2,3,5-tetramethyl-N-(2-(2-oxo-2-(1-(thiophen-2-yl)-3,4-dihydropyrrolo[1,2-a]pyrazin-2(1H)-yl)ethoxy)ethyl)benzenesulfonamide] | 97 | 85 |
| COc1c(C)cc(S(=O)(=O)N(C)CCOCC(=O)N2CCn3cccc3C2c2cccc(C(F)(F)F)c2)c(C)c1C (centres unmarked) [Example 37, 4-methoxy-N,2,3,5-tetramethyl-N-(2-(2-oxo-2-(1-(3-(trifluoromethyl)phenyl)-3,4-dihydropyrrolo[1,2-a]pyrazin-2(1H)-yl)ethoxy)ethyl)benzenesulfonamide] | 38 | 72 |
| COc1cccc(C2c3cccn3CCN2C(=O)COCCN(C)S(=O)(=O)c2cc(C)c(OC)c(C)c2C)c1 (centres unmarked) [Example 38, 4-methoxy-N-(2-(2-(1-(3-methoxyphenyl)-3,4-dihydropyrrolo[1,2-a]pyrazin-2(1H)-yl)-2-oxoethoxy)ethyl)-N,2,3,5-tetramethylbenzenesulfonamide] | 97 | 43 |
| COc1c(C)cc(S(=O)(=O)N(C)CCOCC(=O)N2CCn3cccc3C2c2ccc(C(F)(F)F)cc2F)c(C)c1C (centres unmarked) [Example 39, N-(2-(2-(1-(2-fluoro-4-(trifluoromethyl)phenyl)-3,4-dihydropyrrolo[1,2-a]pyrazin-2(1H)-yl)-2-oxoethoxy)ethyl)-4-methoxy-N,2,3,5-tetramethyl-benzenesulfonamide] | 35 | 80 |
| COc1cc(C)c(S(=O)(=O)N(CCOCC(=O)N2CCn3cccc3C2C)Cc2ccccc2)c(C)c1C (centres unmarked) [Example 40, N-benzyl-4-methoxy-2,3,6-trimethyl-N-(2-(2-(1-methyl-3,4-dihydropyrrolo[1,2-a]pyrazin-2(1H)-yl)-2-oxoethoxy)ethyl)benzenesulfonamide] | 34 | 95 |
| COc1cc(C)c(S(=O)(=O)N(CCOCC(=O)N2CCn3cccc3C2c2cccnc2)Cc2ccccc2)c(C)c1C (centres unmarked) [Example 41, N-benzyl-4-methoxy-2,3,6-trimethyl-N-(2-(2-oxo-2-(1-(pyridin-3-yl)-3,4-dihydropyrrolo[1,2-a]pyrazin-2(1H)-yl)ethoxy)ethyl)benzenesulfonamide] | 57 | 96 |
| COc1cc(C)c(S(=O)(=O)N(CCOCC(=O)N2CCn3cccc3C2c2ccc(Cl)nc2)Cc2ccccc2)c(C)c1C (centres unmarked) [Example 42, N-benzyl-N-(2-(2-(1-(6-chloropyridin-3-yl)-3,4-dihydropyrrolo[1,2-a]pyrazin-2(1H)-yl)-2-oxoethoxy)ethyl)-4-methoxy-2,3,6-trimethylbenzenesulfonamide] | 33 | 91 |
| COc1cc(C)c(S(=O)(=O)N(CCOCC(=O)N2CCn3ccnc3C2)Cc2ccccc2)c(C)c1C [Example 43, N-benzyl-N-(2-(2-(5,6-dihydroimidazo[1,2-a]pyrazin-7(8H)-yl)-2-oxoethoxy)ethyl)-4-methoxy-2,3,6-trimethylbenzenesulfonamide] | 33 | 73 |
| COc1cc(C)c(S(=O)(=O)N(CCOCC(=O)N2CCn3cccc3C2C(C)(C)C)Cc2ccccc2)c(C)c1 (centres unmarked) [Example 44, N-benzyl-N-(2-(2-(1-tert-butyl-3,4-dihydropyrrolo[1,2-a]pyrazin-2(1H)-yl)-2-oxoethoxy)ethyl)-4-methoxy-2,6-dimethylbenzenesulfonamide] | 88 | 98 |
| COc1cc(C)c(S(=O)(=O)N(CCOCC(=O)N2CCn3cccc3C2C)Cc2ccccc2)c(C)c1 (centres unmarked) [Example 45, N-benzyl-4-methoxy-2,6-dimethyl-N-(2-(2-(1-methyl-3,4-dihydropyrrolo[1,2-a]pyrazin-2(1H)-yl)-2-oxoethoxy)ethyl)benzenesulfonamide] | 83 | 99 |
| COc1cc(C)c(S(=O)(=O)N(CCOCC(=O)N2CCn3ccnc3C2)Cc2ccccc2)c(C)c1 [Example 46, N-benzyl-N-(2-(2-(5,6-dihydroimidazo[1,2-a]pyrazin-7(8H)-yl)-2-oxoethoxy)ethyl)-4-methoxy-2,6-dimethylbenzenesulfonamide] | 41 | 96 |
